The record followed here is US7148215B2, “Chemical compounds” (Aventis Pharma S.A., priority 2001, dated 2006).

pIC50: −log10 of the molar value. Counter-ions that a name gives are not always drawn.

The subject of the first data set is rat cerebellar granule neurons. Nature of the data set: Effect of JNK inhibitors on LY294002-induced cytotoxicity in cerebellar granule cells (MTT). Conditions: 3–100 μM added to cells cultured in high potassium medium; FIG. 1. It counts as cell-based. How it is done: 7. Effect of JNK Inhibitors on Cytotoxicity in Cerebellar Granule Cells
LY294002 is a reversible inhibitor of PI3K and activates JNKs with subsequent cell death. We have investigated the ability of the JNK inhibitors to protect against LY294002-induced cell death in a cerebellar granule cell preparation.
Primary cerebellar cell cultures were prepared from 7-day-old Sprague-Dawley rats. Cerebella were carefully collected, dissected free of meninges and cut into 5–7 parts. Tissues were gently mechanically dissociated after digestion with VERSENE (5 minutes, 37° C.). The cells were seed onto 96-well plates pre-coated with poly-D-lysine (Becton-Dickinson) at a final density of 10^5 cells per well. Cultures were maintained at 37° C. in a humidified atmosphere with 5% CO2 and used after the 9th day of culture in DMEM medium complemented with 5% fetal calf serum, 5% horse serum and 30 mM potassium chloride in the presence of an anti-mitotic (10 μM cytosine arabinoside). The drugs were directly added to the culture at the indicated concentrations for 24 hours. Neuronal viability was assessed quantitatively by the colorimetric measurement of Mosmann or MTT assay (1983, J. Immunol. Methods, 65, 55–63). Each condition was tested in sextuplicate or triplicate and the mean values obtained analyzed statistically by one-way ANOVA, followed by Dunnett's multiple comparison test. […]
For the compound `O=c1cc(N2CCOCC2)oc2c(-c3ccccc3)cccc12` [LY294002, reference compound], the “neurotoxic effect on cerebellar granule neurons” value was “induced neuronal death”.

The same data set, now with this note: Neuron; LY294002 30 μM; rat cerebellar granule cells after 9 days of culture; 24 hours; MTT; FIG. 2; read-out: protection against LY294002-induced toxicity, IC50.
What is called pIC50 is the negative decadic logarithm of the IC50, by convention in mol/L. `N#Cc1c(C(N)=O)c2n(c1C1CC1)CCN(C(=O)Nc1ccc(F)cc1)C2` [Example 9(a), 7-Cyano-6-cyclopropyl-3,4-dihydro-1H-pyrrolo[1,2-a]pyrazine-2,8-dicarboxylic acid 8-amide 2-[(4-fluorophenyl)amide]]: the pIC50 was 5.15.

Test system in a further data set: not given
Assay: not given
Conditions: not given
The term melting point denotes the temperature of the solid-liquid transition. Compound `N#Cc1c(C(N)=O)c2n(c1-c1cccnc1)CCN(C(=O)Nc1ccc(F)cc1)C2` gave a melting point of 275 to 279 °C.
Compound `N#Cc1ccc(NC(=O)N2CCn3c(c(C(N)=O)c(C#N)c3-c3cccnc3)C2)cc1` displayed a melting point of 291 to 296 °C.
Still for that read-out and setting: for `CS(=O)(=O)N1CCC(c2c(C#N)c(C(N)=O)c3n2CCN(C(=O)Nc2ccc(F)cc2)C3)CC1` the value was 177 to 180 °C; for `CS(=O)(=O)N1CCC(c2c(C#N)c(C(N)=O)c3n2CCN(C(=O)Nc2ccc(C#N)cc2)C3)CC1`, 218 to 221 °C; for `N#Cc1ccc(NC(=O)N2CCn3c(c(C(N)=O)c(Cl)c3C3CC3)C2)cc1`, 196 to 198 °C.
`NC(=O)c1c(Cl)cn2c1CN(C(=O)Nc1ccc(F)cc1)CC2` gave a melting point of 229 to 231 °C.
`COc1ccc(NC(=O)N2CCn3c(c(C(N)=O)c(Cl)c3-c3ccccc3)C2)cc1` yielded a melting point of 246 to 248 °C.
Same read-out and setting: for `NC(=O)c1c(Cl)cn2c1CN(C(=O)Nc1ccc(-c3ccccn3)s1)CC2` the value was 249 to 250 °C; for `Cc1ccc(-c2c(Cl)c(C(N)=O)c3n2CCN(C(=O)Nc2ccc(F)cc2)C3)cn1`, 235 to 238 °C (dec.).
Still for that read-out and setting: the value for `Cc1ccc(-c2c(Cl)c(C(N)=O)c3n2CCN(C(=O)Nc2ccc4ncccc4c2)C3)cn1` was 221 to 222 °C; that for `N#Cc1c(C(N)=O)c2n(c1C1CCOCC1)CCN(C(=O)Nc1cccc(C(F)(F)F)c1)C2` was 200 to 202 °C (dec.); that for `N#Cc1c(C(N)=O)c2n(c1C1CCOCC1)CCN(C(=O)Nc1ccc3ncccc3c1)C2` was 296 to 298 °C (dec.).
Same read-out and setting: for `N#Cc1c(C(N)=O)c2n(c1C(F)(F)F)CCN(C(=O)Nc1ccc(C(F)(F)F)cc1)C2` the value was 243 to 246 °C (dec.).
Compound `N#Cc1c(C(N)=O)c2n(c1C1CC1)CCN(C(=O)Nc1ccc(C(F)(F)F)nc1)C2` registered a melting point of 149 to 153 °C.
The compound `N#Cc1c(C(N)=O)c2n(c1-c1ccccc1)CCN(C(=O)Nc1ccc(C(=O)O)cc1)C2` registered a melting point of 286 to 288 °C.
With `NC(=O)c1c(Cl)c(-c2ccccc2)n2c1CN(C(=O)Cc1ccccc1O)CC2`, the melting point was in the range of 176 to 180 °C.
Still for that read-out and setting: the value for `NC(=O)c1c(Cl)c(-c2ccccc2)n2c1CN(C(=O)Nc1cccnc1)CC2` was 261 to 263 °C.
On the same count and under the same terms, for `NC(=O)c1c(Cl)c(-c2ccccc2)n2c1CN(C(=O)CCC1CCCCC1)CC2` the value was 181 to 182 °C.
`NC(=O)c1c(Cl)c(-c2ccccc2)n2c1CN(S(=O)(=O)c1cccs1)CC2` yielded a melting point of 240 to 242 °C.
On the same count and under the same terms, the value for `N#Cc1c(C(N)=O)c2n(c1C1CC1)CCN(S(=O)(=O)c1ccc(C(F)(F)F)cc1)C2` was 253 to 256 °C.
The compound `NC(=O)c1c(Cl)c(-c2cccnc2)n2c1CN(S(=O)(=O)c1ccc(C(F)(F)F)cc1)CC2` showed a melting point of 205 to 206 °C.
Same read-out and setting: the value for `NC(=O)c1c(Cl)cn2c1CN(S(=O)(=O)c1ccc(-c3ccccn3)s1)CC2` was 213 to 214 °C.
Same read-out and setting: the value for `NC(=O)c1c(Cl)c(-c2ccccc2)n2c1CN(S(=O)(=O)Nc1ccccc1)CC2` was 207 to 208 °C; that for `NC(=O)c1c(Cl)c(-c2ccccc2)n2c1CN(C(=O)Oc1ccccc1)CC2` was 196 to 198 °C; that for `COc1ccc(NC(=S)N2CCn3c(c(C(N)=O)c(Cl)c3-c3ccccc3)C2)cc1` was 176 to 178 °C.
On the same count and under the same terms, the value for `COc1ccc(N/C(=N\C#N)N2CCn3c(c(C(N)=O)c(Cl)c3-c3ccccc3)C2)cc1` was 170 °C; that for `COc1ccc(NC(=O)N2CCn3c(-c4ccccc4)cc(C(N)=O)c3C2)cc1` was 170 to 173 °C.
`N#Cc1c(C(N)=O)c2n(c1C1CC1)CCN(C(=O)Nc1ccc(C(=O)NCCN3CCOCC3)cc1)C2` displayed a melting point of 197 to 199 °C.
In turn, `Cc1c(Cl)c(C(N)=O)c2n1CCN(C(=O)Nc1cccc(F)c1)C2` displayed a melting point of 229 to 231 °C.
In turn, `N#Cc1c(C(N)=O)c2n(c1-c1ccccc1)CCN(C(=O)Nc1cccc(F)c1)C2` had a melting point of 219 to 220 °C.
On the same count and under the same terms, for `NC(=O)c1c(Cl)c(C2CC2)n2c1CNCC2` (as salt: trifluoroacetic acid salt) the value was 237 to 239 °C; for `NC(=O)c1c(Cl)c(C2CC2)n2c1CN(C(=O)Nc1ccc(F)cc1)CC2` [Example 3], 266 to 267 °C; for `N#Cc1c(C(N)=O)c2n(c1C1CC1)CCN(C(=O)Nc1ccc(F)cc1)C2` [Example 9(a), 7-Cyano-6-cyclopropyl-3,4-dihydro-1H-pyrrolo[1,2-a]pyrazine-2,8-dicarboxylic acid 8-amide 2-[(4-fluorophenyl)amide]], 232 to 234 °C.
As to `NC(=O)c1c(Cl)c(C2CC2)n2c1CN(C(=O)Nc1ccc(F)cc1)CC2` [Example 16(a)], the melting point was 230 to 231 °C.
